assay: in vitro; details: human, hela cells, % viability

SMILES | viability at 28.5 h, 10 µM [%]
COc1ccccc1N1CC(C(=O)Nc2ccc(C(=O)O)cc2)CC1=O (stereo not shown) [CBK269606] | 84.9
CCC(=O)Nc1nonc1-c1nc2ccccc2n1Cc1ccc(F)cc1Cl [CBK269608] | 84.1
CCN1CCN(S(=O)(=O)c2cccc3c(S(=O)(=O)N4CCN(CC)CC4)cccc23)CC1 [CBK269611] | 90.4
Cc1ccc(S(=O)(=O)c2nc(NCCN3CCOCC3)sc2Cl)cc1 [CBK269615] | 79.7
Cc1cc(OC(C)C(=O)NCc2ccccn2)ccc1Cl (stereo not shown) [CBK269617] | 110
O=C(O)c1ccc(CNCc2ccc(-c3ccc(Cl)cc3)o2)cc1 [CBK269619C] | 94.7
O=C(Nc1cccnc1)C1CCN(S(=O)(=O)c2ccc(Oc3ccccc3)cc2)CC1 [CBK269621] | 81.8
CC(=O)N1CCN(c2ccc(NC(=O)c3cccc4c(Br)cccc34)cc2Cl)CC1 [CBK269624] | 93.8
CN1CCN(C(=O)CN(CC(=O)N2CCN(C)CC2)S(=O)(=O)c2ccc(Cl)cc2)CC1 [CBK269627] | 96.6
Cn1c(COc2ccccc2)nnc1SCc1nnc(-c2ccccc2)o1 [CBK269628] | 94.1
CN1CCN(CCCOc2ccccc2OCc2ccccc2)CC1 [CBK269630C] | 90.4
Cc1ccc(SCCN2CCN(C)CC2)cc1 [CBK269631C] | 89.2
Cc1ccnc(SCc2c(Cl)cccc2[N+](=O)[O-])n1 [CBK269632] | 86
COc1ccc(CNc2cccc(C(=O)O)c2C)cc1OC [CBK269634] | 109
CC(Oc1ccccc1)C(=O)Nc1ccccc1NC(=O)c1ccco1 (stereo not shown) [CBK269636] | 88.4
Cn1c(SCc2nnc(-c3ccccc3)o2)nnc1C(O)c1ccccc1 (stereo not shown) [CBK269640] | 92.3
COC(=O)c1cccc(COC(=O)c2ccc3nc(C)c(C)nc3c2)c1 [CBK269641] | 95.2
CC(NC(=O)c1ccccc1)c1nnc(SCC(=O)N2CCOCC2)n1C (stereo not shown) [CBK269647] | 86
COc1ccc(C)cc1S(=O)(=O)N(CC(=O)O)c1ccc(C)c(Cl)c1 [CBK269655] | 83.3
Cc1ccc(S(=O)(=O)N2CCOCC2)cc1C(=O)NCCc1ccccc1 [CBK269658] | 99
Cc1cccc(-c2nnc(-c3cccc(NC(=O)COc4ccccc4)c3)o2)c1 [CBK269659] | 95.8
COc1ccc(NC(=O)c2ccc3c(c2)C(=O)N(Cc2ccncc2)C3=O)cc1 [CBK269660] | 97.7
Cc1nc2ccc(C(=O)OCc3ccc(S(=O)(=O)Cc4ccccc4)cc3)cc2nc1C [CBK269661] | 97.6

SMILES | viability at 28.5 h, 10 µM [%]
O=C(Nc1cccnc1)c1cccnc1C(=O)O [CBK269663] | 90.1
O=C(Nc1ccc(S(=O)(=O)NCc2ccncc2)cc1)c1ccccc1Cl [CBK269664] | 91.5
Cc1cc(Cl)cc(Br)c1OCCN1CCN(C)CC1 [CBK269668C] | 93.9
FC(F)(F)c1cccc(OCCN2CCOCC2)c1 [CBK269669C] | 96.8
COc1ccc([N+](=O)[O-])cc1CSc1nnc(-c2ccco2)n1C [CBK269671] | 89.3
OCc1ccc(OCCCOc2cccc3cccnc23)cc1 [CBK269674] | 85.8
Cc1cc(C)cc(OCC(=O)Nc2ccc3[nH]c(=O)[nH]c3c2)c1 [CBK269676] | 99.5
Cc1ccc(S(=O)(=O)N2CCOCC2)cc1C(=O)NCc1ccco1 [CBK269677] | 102
CCn1c(SCC(=O)Nc2cc(Cl)ccc2O)nnc1-c1ccccc1 [CBK269680] | 87.4
COc1cc(CNCCO)cc(Br)c1OCc1cccnc1 [CBK269681C] | 100
COc1cccc(CNc2ccc3c4c(cccc24)CC3)c1OC [CBK269688] | 92.5
CN1CCN(c2ccc(NC(=O)c3cccc(-c4cc5ccccc5oc4=O)c3)cc2Cl)CC1 [CBK269689] | 83.5
CN1CCN(CCCCOc2ccc(Cc3ccccc3)cc2)CC1 [CBK269692C] | 91.6
COc1cc(OC)c(NC(=O)C(C)Oc2ccc(Cl)c(C)c2)cc1Cl (stereo not shown) [CBK269697] | 89.7
O=C(CSc1ccc2ccccc2c1)NCc1ccco1 [CBK269699] | 80.3
O=C(Nc1cc(-c2nc3ncccc3o2)ccc1Cl)c1cccnc1 [CBK269700] | 90.8
O=C(CSc1ccc(Br)cc1)NCc1ccco1 [CBK269701] | 86.5
CC(C)C(=O)NC(=S)Nc1ccc2oc(-c3ccncc3)nc2c1 [CBK269702] | 96.4
CN(Cc1ccccc1)C1(O)C(=O)Nc2ccc(Cl)cc21 (stereo not shown) [CBK269703] | 95.9
Cc1cc(Cl)c(S(=O)(=O)N(C)C)cc1OCC(=O)Nc1ccccc1 [CBK269705] | 89
Nc1cc(C(=O)c2ccc(Br)c(N)c2)ccc1Cl [CBK269708] | 86.6
O=C(Oc1ccc2c(c1)OCO2)c1cc(S(=O)(=O)N2CCOCC2)c(Cl)cc1Cl [CBK269709] | 101
Cc1c(NC(=S)NC(=O)C(C)C)cccc1-c1nc2ncccc2o1 [CBK269712] | 98.3

SMILES | viability at 28.5 h, 10 µM [%]
COc1cccc(CNc2ccc(-c3nc4ncccc4o3)cc2)c1OC [CBK269716] | 91
Cc1ccc(-c2nnc(COc3ccc(-c4cnc5ccccc5n4)cc3)o2)cc1 [CBK269721] | 90.9
Cc1cccc(C(=O)NCc2nnc(SCC(=O)N3CCOCC3)n2C)c1 [CBK269723] | 95.3
COc1ccccc1NC(=O)COc1ccc(C)cc1[N+](=O)[O-] [CBK269724] | 81.6
O=C(CC1(O)C(=O)N(Cc2ccc3c(c2)OCO3)c2ccccc21)c1ccccn1 (stereo not shown) [CBK269725] | 94.2
CN1CCN(c2ccc(NC(=O)c3ccc([N+](=O)[O-])o3)cc2)CC1 [CBK269727] | 18.8
Cc1ccc(-c2nnc(COC(=O)c3c4c(nc5ccccc35)CCCC4)o2)cc1 [CBK269728] | 105
O=C(Nc1cc(-c2nc3ncccc3o2)ccc1Cl)c1ccco1 [CBK269730] | 104
Cc1cccc(CSc2nnc(C(C)NC(=O)c3ccccc3F)n2C)c1 (stereo not shown) [CBK269732] | 91.6
Cc1ccc(SCCCn2ccnc2)cc1 [CBK269733C] | 86.3
C=CCc1cccc(Cl)c1OCCN1CCN(C)CC1 [CBK269734C] | 90.5
O=C(CSc1nc2ccccc2c(=O)[nH]1)Nc1ccccc1O [CBK269738] | 104
COCc1nnc(SCC(=O)N2CCc3ccccc32)n1-c1ccccc1 [CBK269739] | 83.1
CCn1c(CN2CCOCC2)nnc1SCC(=O)Nc1cccc(Br)c1 [CBK269740] | 85.6
Cc1ccc(-c2nnc(COC(=O)c3cc(O)nc4ccccc34)o2)cc1 [CBK269741] | 88.9
Cc1cccc(C)c1NC(=O)CSc1nnc(C(O)c2ccccc2)n1C (stereo not shown) [CBK269742] | 84.8
CCN1C(=O)CC(N2CCN(c3cc(-c4ccc(OC)cc4)nc(C)n3)CC2)C1=O (stereo not shown) [CBK269744] | 106
CS(=O)(=O)c1cccc(S(=O)(=O)N2CCN(Cc3ccccc3)CC2)c1 [CBK269747] | 88.9
CC(C)(CO)NC(=O)c1cc(S(=O)(=O)N2CCOCC2)ccc1Cl [CBK269748] | 94
Cn1c(Cc2ccccc2)nnc1SCC(=O)Nc1ccc(N2CCOCC2)cc1 [CBK269750] | 89.8
C=CCn1c(NCc2ccco2)nc2ccccc21 [CBK269751] | 87.9
Cc1ccccc1OC(C)C(=O)Nc1ccccc1C(=O)N1CCOCC1 (stereo not shown) [CBK269753] | 103
CCOc1ccc(S(=O)(=O)N2CCC(C(=O)O)CC2)cc1Cl [CBK269759] | 97.4

SMILES | viability at 28.5 h, 10 µM [%]
O=C(CCC1COc2ccccc2O1)N1CCN(Cc2ccccc2)CC1 (stereo not shown) [CBK269767] | 93.7
CCOc1ccc(S(=O)(=O)N(CC)CC(=O)O)cc1C [CBK269770] | 91.5
CN1CCN(C(=O)c2ccccc2NC(=O)NC2CCCCC2)CC1 [CBK269771] | 94
COc1ccc(-c2noc(CN(C(=O)Cc3ccc(C)cc3)C(C)C)n2)cc1 [CBK269774] | 89.6
NC(=O)C1CCN(CC(=O)Nc2cc(C(F)(F)F)ccc2Cl)CC1 [CBK269776] | 100
O=C(NC1CCCC1)c1ccc2c(c1)C(=O)N(CC1CCCO1)C2=O (stereo not shown) [CBK269777] | 103
c1ccc(-c2nn3c(CN4CCOCC4)nnc3c3ccccc23)cc1 [CBK269779] | 89
CCC(C)Nc1nc(SCC(=O)OC)nc(N(C)C)n1 (stereo not shown) [CBK269780] | 95.2
Cn1c(NC(=O)COc2ccccc2)nc2ccccc21 [CBK269783] | 98.7
CCn1c(C)c(C)n2c3c(=O)n(CCN4CCOCC4)c(=O)n(C)c3nc12 [CBK269786] | 90.6
O=C(Cc1ccc(Cl)cc1)NCCc1c[nH]c2ccccc12 [CBK269787] | 87
Cc1cc(CNC(=O)COc2cc(Cl)ccc2Cl)c2ccccc2n1 [CBK269788] | 89.1
N#Cc1ccccc1NC(=O)CSc1cnn[nH]1 [CBK269795] | 89.3
Cc1nn(CCCC(=O)O)c(C)c1I [CBK269796] | 91.3
Cc1nn(C(C)CC(=O)NCc2ccco2)c(C)c1Br (stereo not shown) [CBK269797] | 89.5
Cc1cc2c(SCc3cc(O)[nH]n3)ncnc2s1 [CBK269799] | 93.9
CCC(Sc1nc(C)cc(C)n1)C(=O)Nc1ccc(NC(C)=O)cc1 (stereo not shown) [CBK269804] | 89
O=C(Cc1cccs1)NCCc1c[nH]cn1 [CBK269805] | 93.2
O=C(O)CC1C(=O)NCCN1Cc1ccc(-c2ccccc2)cc1 (stereo not shown) [CBK269812] | 91
COc1ccc(Nc2cn(C)nc2C(=O)O)cc1 [CBK269814] | 103
CCOc1ccc(S(=O)(=O)N2CCC(C(=O)NCCO)CC2)cc1 [CBK269817] | 88.6
O=C(O)CCCn1cc(NC(=O)Cc2ccccc2)cn1 [CBK269821] | 93.9

Source: publication PMC12040169 (PLOS Biology, 2025)
